Experimental findings from patent publication US5478807A, “Use of relaxin in the treatment of bradycardia” (Genentech, Inc., priority 1992, dated 1995) are described below.

In one test the test system is rat isolated heart. Nature of the test: Chronotropy and inotropy in Langendorff rat isolated heart. The following applies: for maximum beating rate: 83 pMol. The protocol:
Male Sprague-Dawley rats weighing 300-350 g (Charles River, Portage, Ind., USA) were anesthetized with 60 mg/kg pentobarbital sodium (Fort Dodge Laboratories, Inc., Fort Dodge, Iowa, USA) intraperitoneally. Following thoracotomy, the hearts were removed and placed into 4° C. […] Any associated lung and thymic tissue were trimmed off and the ascending aorta cannulated. The heart was then perfused at 10 ml/min with Krebs-Henseleit solution at 37° C. The perfusion pressure was constantly monitored. A small incision was made in the left atrium and a water-filled balloon (Hugo Sachs Electronik, March-Hugstetten, Germany) connected to a pressure transducer (Gould Electronics, Valley View, Ohio, USA) was placed into the left ventricle for the measurement of left ventricular developed pressure (LVDP). From this pressure, recording heart rate was electronically derived on a Grass polygraph (Quincy, Mass., USA).
In six experiments, after a 15-20 minutes stabilization period, the atria were removed. The heart rate was then allowed to stabilize at its new rate before the administration of relaxin. In three experiments, the atria were left intact.
Relaxin was administered as 50 μl bolus injections into the perfusion fluid immediately prior to entering the heart. Cumulative dose-response curves were constructed using human recombinant H2 relaxin (Genentech, Inc. South San Francisco, Calif., USA). […] Serial dilutions of both drugs were made using 0.9% (w/v) saline solution.
Statistical significance was determined by a two-tailed Student's unpaired t-test and P<0.005 was taken as significant.

The nature of test [1]: Intravenous injection of relaxin, earlier experiments. In kind it is in vivo.
The subject of test [2] is primary human uterine cell line. Nature of the test: cAMP bioassay in primary human uterine cell line. The format is cell-based. The protocol: The phosphorylated relaxin was assayed for its ability to increase cAMP levels in a primary human uterine cell line. The procedure of Kramer et al. [Kramer et al., In Vitro Cell, Dev, Biol. 26, 647-656 (1990)] was modified and carried out as follows: human uterine cells at passage 15-22 were grown to confluency in Ham's F12/DMEM (1/1, v/v) medium supplemented with 10% heat-inactivated newborn calf serum, 100 unites/ml penicillin, 100 μg/ml streptomycin, 2 mM glutamine and 24 mMHEPES, pH 7.4. Cells were plated into 6-well culture plates at 10^5 cells/well and incubated overnight at 37° C. and 5% CO2 in air. The cells (at 60-80% confluency) were then washed twice with F12/DMEM-24 mMHEPES, pH 7.4 (buffer B) at room temp. […] Aliquots of the extracts were then neutralized with 0.1 N NaOH and cAMP levels were measured in a radioimmunoassay. The assay was based on the competition between cAMP and a fixed quantity of ^125 I-labeled cAMP (Du Pont) for binding to a goat anti-cAMP antibody (Cambridge). […] The radioactivity in the pellet was measured in a gamma counter, and the amount of cAMP in the samples was determined by comparison with a standard cAMP curve. A relaxin standard curve was constructed in which the cAMP concentrations (pmol/ml) determined in the radioimmunoassay were plotted as a function of stimulating relaxin concentrations (ng/ml). […]

Another test concerns pubic symphysis. Nature of the test: Mouse pubic symphysis assay. The following applies: in vivo. The protocol:
The concentration of relaxin was determined by amino acid analysis.

As for relaxin, the “transient increases in coronary perfusion pressure” value in the test with rat isolated heart is given as “not seen”. For the same substance, the “effect on LVDP” value with rat isolated heart (atria removed (LVDP 143±9 mmHg), 0.83 pMol) is on record as “significantly reduced the LVDP to control levels”. In addition, the maximum beating rate in the test with rat isolated heart (atria removed, basal 139±15 bpm) is 268±7 bpm; with rat isolated heart (intact heart preparations, basal 270±7 bpm), 412±18 bpm. Further, the inotropic effect result in the test with rat isolated heart (isolated heart preparations) is reported as “no positive inotropic effects”. Also, the “duration of chronotropic effect” value with rat isolated heart (relaxin: single bolus administration of 830 pMol) was “up to two hours”. Besides, in test [1], the heart rate entry is reported as “small but consistent increase in heart rate”. Moreover, the “systolic and diastolic pressure” value in test [1] is “decrease in systolic and diastolic pressure”. For the same substance, the biological activity result (in test [2]; in the test with pubic symphysis) was “biologically active” throughout.
